Laboratory results from US8410166B2, “Fused bicyclic compound” (Mitsubishi Tanabe Pharma Corporation, priority 2007, dated 2013).

Each molecule was assayed against T1, mineralocorticoid receptor (MR) (Rattus norvegicus, UniProt P22199) (assay: Aldosterone receptor binding assay (rat kidney cytosol, [3H]aldosterone)). Conditions: MR derived from rat kidney, 3H-aldosterone; read-out: Ki values in 3H-aldosterone binding to MR.
T1 construct: the homogenate was centrifuged at 100,000×g for 1 hour to give a supernatant as a kidney cytosol fraction; from tissue; host or cells: kidney cytosol fraction of adrenalectomised male Sprague-Dawley rats
T1 sequence (P22199 1-981): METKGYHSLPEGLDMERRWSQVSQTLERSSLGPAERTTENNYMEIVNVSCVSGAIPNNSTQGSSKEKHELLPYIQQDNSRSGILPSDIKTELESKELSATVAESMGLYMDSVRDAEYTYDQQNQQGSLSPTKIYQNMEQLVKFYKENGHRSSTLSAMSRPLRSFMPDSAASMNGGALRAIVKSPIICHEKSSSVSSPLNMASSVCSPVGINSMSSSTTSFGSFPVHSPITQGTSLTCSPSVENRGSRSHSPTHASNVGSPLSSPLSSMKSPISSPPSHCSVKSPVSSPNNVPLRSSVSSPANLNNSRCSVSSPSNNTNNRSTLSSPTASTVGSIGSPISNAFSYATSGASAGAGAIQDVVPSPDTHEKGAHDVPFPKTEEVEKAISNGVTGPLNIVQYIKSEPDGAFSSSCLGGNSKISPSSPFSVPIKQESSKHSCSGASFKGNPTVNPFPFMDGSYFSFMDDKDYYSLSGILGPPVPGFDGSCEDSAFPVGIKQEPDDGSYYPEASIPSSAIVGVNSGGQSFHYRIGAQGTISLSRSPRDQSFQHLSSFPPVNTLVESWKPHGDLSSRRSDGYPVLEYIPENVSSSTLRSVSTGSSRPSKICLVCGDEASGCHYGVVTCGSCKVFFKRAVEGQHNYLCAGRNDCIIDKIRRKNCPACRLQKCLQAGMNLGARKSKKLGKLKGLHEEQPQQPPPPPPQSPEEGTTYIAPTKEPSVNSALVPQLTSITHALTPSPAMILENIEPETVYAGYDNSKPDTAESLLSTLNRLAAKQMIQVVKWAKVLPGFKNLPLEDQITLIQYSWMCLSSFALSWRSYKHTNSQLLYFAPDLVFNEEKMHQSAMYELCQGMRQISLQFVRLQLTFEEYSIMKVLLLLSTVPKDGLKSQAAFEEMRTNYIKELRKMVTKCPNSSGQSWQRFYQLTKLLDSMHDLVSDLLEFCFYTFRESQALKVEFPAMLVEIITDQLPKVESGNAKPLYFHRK
Protocol: The compound of the present invention has a high affinity to a mineralocorticoid receptor (MR) of mammals. For example, in a biding assay using a rat MR and ^3H-aldosterone, which was conducted according to a method disclosed in The Journal of Pharmacology and Experimental Therapeutics, 1987; 240: p. […] Accordingly, the compound [I] is useful for treating and/or preventing the diseases associated with MR, e.g., circulatory system disease including hypertension and heart failure etc.
[Aldosterone Receptor Binding Assay]
(1) Preparation of Kidney Cytosol Fraction:
Kidneys derived from post-adrenalectomy Sprague-Dawley male rats (7 weeks old) were homogenized in the following buffer solution and the homogenate was centrifuged at 100,000×g for 1 hour to give a supernatant as a kidney cytosol fraction (protein concentration: 15 mg/mL) for the present biding assay.
Composition of Buffer Solution:
50 mM Tris-HCl (pH 7.5), 250 mM Sucrose, 50 mM Potassium chloride, 3 mM Magnesium chloride, 20 mM Sodium molybdate and 1 mM Mercaptoethanol
A mixture of 5 μL of a solution of each test compound in dimethylsulfoxide, 200 μL of kidney cytosol fraction, 50 μL of physiological saline (or 50 μL of unlabeled aldosterone solution (final concentration: 1 μM) and 50 μL of [^3H] aldosterone solution (ca. 2 nM) was incubated in a test tube at 4° C. overnight. Thereto was added 100 μL of dextrane-coated charcoal/10 mM Tris-HCl buffer and the mixture was incubated at 4° C. for 30 minutes. The reaction mixture was centrifuged at 3000 rpm for 10 minutes and to the supernatant (150 μL) was added 5 mL of a scintillater (Clearsol I, Nakarai Tesque). The radioactivity was measured by a liquid scintilation counter (TRI CARB 2200C A, Packard). The concentration of each test compound required to produce 50% inhibition of aldosterone-binding to receptors (IC50; μM) was calculated on the basis of the above quantitated radioactivity. Moreover, the dissociation constant (Ki) of each test compound was calculated on Cheng and Prusoff s equation (Ki=IC50/(1+[L]/Kd), wherein [L] is [^3H]aldosterone concentration and Kd is the affinity constant of aldosterone).

| Ki | SMILES |
| --- | --- |
| < 10000 nM | CC1(C)N=C(c2ccc(F)cc2)c2c(F)cc(N)cc2O1 [5-fluoro-4-(4-fluorophenyl)-2,2-dimethyl-2H-1,3-benzoxazin-7-amine] |
| < 10000 nM | CC1=C(c2ccc(F)cc2)c2ccc(NS(C)(=O)=O)cc2OC1(C)C [Example 6, N-[4-(4-fluorophenyl)-2,2,3-trimethyl-2H-chromen-7-yl]methanesulfonamide] |
| < 10000 nM | CC1(C)N=C(c2ccc(Cl)cc2)c2ccc(NS(C)(=O)=O)cc2O1 [Example 1, N-[4-(4-chlorophenyl)-2.2-dimethyl-2H-1,3-benzoxazin-7-yl]methanesulfonamide] |
| < 10000 nM | CC1(C)Oc2cc(N)ccc2C(c2ccc(F)cc2)=C1C#N [7-amino-4-(4-fluorophenyl)-2,2-dimethyl-2H-chromen-3-carbonitrile] |

Same assay, conditions: [3H]aldosterone binding to MR of rat kidney cytosol fraction; Ki by Cheng-Prusoff; read-out: Ki

| SMILES | Ki |
| --- | --- |
| CC1=C(c2ccc(F)cc2)c2ccc(NS(C)(=O)=O)cc2OC1(C)C [Example 6, N-[4-(4-fluorophenyl)-2,2,3-trimethyl-2H-chromen-7-yl]methanesulfonamide] | < 500 nM |
| CS(=O)(=O)Nc1ccc2c(c1)OC1(CCCC1)C(C#N)=C2c1ccc(F)cc1 [Example 55(2) compound (a), N-[3-cyano-4-(4-fluorophenyl)spiro[chromen-2′,1′-cyclopentan]-7-yl]methanesulfonamide] | < 500 nM |
| CC1(C)N=C(c2ccccc2)c2ccc(NS(C)(=O)=O)cc2O1 [Example 10] | 500 to 1000 nM |
| CNS(=O)(=O)c1ccc2c(c1)OC(C)(C)N=C2c1ccc(F)cc1 [Example 61, N,2,2-trimethyl-4-(4-fluorophenyl)-2H-1,3-benzoxazin-7-sulfonamide] | 500 to 1000 nM |

Next, values leading:

| Ki | SMILES |
| --- | --- |
| < 500 nM | CC1(C)CC(c2ccc(F)cc2)c2ccc(NS(C)(=O)=O)cc2O1 (centres unmarked) [Example 8, N-[4-(4-fluorophenyl)-2,2-dimethyl-3,4-dihydro-2H-chromen-7-yl]methanesulfonamide] |
| < 500 nM | CC1(C)N=C(c2ccc(Cl)cc2)c2ccc(NS(C)(=O)=O)cc2O1 [Example 1, N-[4-(4-chlorophenyl)-2.2-dimethyl-2H-1,3-benzoxazin-7-yl]methanesulfonamide] |
| < 500 nM | CC1(C)Oc2cc(NS(C)(=O)=O)ccc2C(c2ccc(Cl)c(F)c2)=C1C#N [Example 53] |
| < 500 nM | Cc1cc(NS(C)(=O)=O)cc2c1C(c1ccc(F)cc1)=NC(C)(C)O2 [Example 47] |
| < 500 nM | CC1(C)N=C(c2csc3ccccc23)c2ccc(NS(C)(=O)=O)cc2O1 [Example 26] |
| < 500 nM | Cc1cc(Cl)ccc1C1=CC(C)(C)Oc2cc(NS(C)(=O)=O)ccc21 [Example 42] |
